Literature values, collected in patent US8293800B2, “Quinone derivative 2,3-dimethoxy-5-methyl-6-(10-hydroxydecyl)-1,4-benzoquinone for the treatment of primary progressive multiple sclerosis” (Santhera Pharmaceuticals (Schweiz) AG, priority 2009, dated 2012).

Assays:
[1] = chronic-progressive form of MS; 90 mg/day in combination with methylprednisolone over 240 days
[2] = PP-MS cohort; did not reach statistical significance
[3] = PP-MS, placebo-controlled Phase II
[4] = PP-MS patients

COC1=C(OC)C(=O)C(CCCCCCCCCCO)=C(C)C1=O [Idebenone, 2,3-dimethoxy-5-methyl-6-(10-hydroxydecyl)-1,4-benzoquinone]
clinical or neurophysiological efficacy [1]: could not be shown to have any clinical or neurophysiological efficacy

Nc1nc2ccc(OC(F)(F)F)cc2s1 [riluzole]
inhibiting the development of cervical cord atrophy [2]: mild effect

Rituximab: Rituximab, tested in a placebo-controlled Phase II trial in PP-MS
effect on the accumulation of disability [3]: failed to demonstrate any effect

interferon-beta
could slow down the accumulation of disability in PP-MS [4]: Neither
